This is an account of results in the supplement of paper PMC11208160.
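Further: IS621 recombinase and bridge RNA in Escherichia coli cells.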

The data set can be described thus: recombinant barcode read abundance after kanamycin selection (control-corrected) (log10(CPM+1)); higher = more efficient recombination; sequences stand for … in AGTGCAGAGAAAATCGGCCAGTTTTCTCTGCCTGCAGTCCGCATGCCGT…AGATTTATGCAGCGGACTGCCTTTCTCCCAAAGTGATAAACCGGACAGTATCATGGACCGGTTTTCCCGGTAATCCGTATTTGCAAGGTTGGTTTCACT; site = the 11-nt target. The method, boiled down: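 In E. coli, a pooled library matched targets to IS621 bridge RNA target-binding loops and was introduced alongside a donor plasmid. Cells went onto chloramphenicol/ampicillin/kanamycin with 0.1 mM IPTG or onto chloramphenicol/ampicillin LB agar as control, in duplicate. Recombination efficiency, from recombinant-junction barcodes as counts per million, is averaged and control-corrected. It is reported as log10(CPM+1).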
For the sequence “CCTACATCTTGGGTTCTAACCTGTTGCCT (site CCTACAGCTAG)”, the “recombinant barcode read abundance (log10)” value turned out to be 0.0484.

For the sequence “CCTACATCTTGGGTTCTAACCTGTTGCCT (site CCTACATCTAG)”, the “recombinant barcode read abundance (log10)” value was 0.123.

On to “CCTACTCCTTGGGTTCTAACCTGTTGCAG (site CCTACTACTCG)”, for which the “recombinant barcode read abundance (log10)” value is 0.0435.

On to “CCTACTCCTTGGGTTCTAACCTGTTGCAG (site CCTACTCCTCT)”, for which the “recombinant barcode read abundance (log10)” value was determined as 0.0147.

As to “CCTATCCCTTGGGTTCTAACCTGTTGCCT (site CCTATCCCTAG)”, the “recombinant barcode read abundance (log10)” value came out at 1.32.

Turning to “CCTATCCCTTGGGTTCTAACCTGTTGCCT (site CCTTTCACTAG)”, the “recombinant barcode read abundance (log10)” value came to 0.311.

Regarding “CCTCAATCTTGGGTTCTAACCTGTTGCTT (site CCTCAATCTAA)”, the “recombinant barcode read abundance (log10)” value is 0.224.

On to “CCTCAATCTTGGGTTCTAACCTGTTGCTT (site CCTCACTCTAA)”, for which the “recombinant barcode read abundance (log10)” value was 0.0745.

As to “CCTCAATCTTGGGTTCTAACCTGTTGCTT (site CCTCAGTCTAA)”, the “recombinant barcode read abundance (log10)” value was found to be 0.0516.

Regarding “CCTCAATCTTGGGTTCTAACCTGTTGCTT (site CCTCATTCTAA)”, the “recombinant barcode read abundance (log10)” value amounted to 0.144.

Take “CCTCACTCTTGGGTTCTAACCTGTTGCTT (site CCTCAATCTAA)”: the “recombinant barcode read abundance (log10)” value came to 0.058.

In the case of “CCTCACTCTTGGGTTCTAACCTGTTGCTT (site CCTCACTCTAA)”, the “recombinant barcode read abundance (log10)” value amounted to 1.2.

“CCTCACTCTTGGGTTCTAACCTGTTGCTT (site CCTCAGTCTAA)”: the “recombinant barcode read abundance (log10)” value is 0.00592.

In the case of “CCTCACTCTTGGGTTCTAACCTGTTGCTT (site CCTCATTCTAA)”, the “recombinant barcode read abundance (log10)” value turned out to be 0.0602.

On to “CCTCAGACTTGGGTTCTAACCTGTTGCGA (site CCTCAGACTTC)”, for which the “recombinant barcode read abundance (log10)” value was found to be 2.79.

In the case of “CCTCAGACTTGGGTTCTAACCTGTTGCGA (site CTTCAGACTTA)”, the “recombinant barcode read abundance (log10)” value was determined as 0.0629.

Regarding “CCTCAGGCTTGGGTTCTAACCTGTTGCCA (site CCTCAGGCTAG)”, the “recombinant barcode read abundance (log10)” value was 0.312.

For “CCTCAGGCTTGGGTTCTAACCTGTTGCCA (site CCTCAGGCTCG)”, the “recombinant barcode read abundance (log10)” value worked out at 0.0454.

Consider “CCTCAGGCTTGGGTTCTAACCTGTTGCCA (site CCTCAGGCTGG)”, for which the “recombinant barcode read abundance (log10)” value turned out to be 0.217.

With “CCTCAGGCTTGGGTTCTAACCTGTTGCCA (site CCTCAGGCTTG)”, the “recombinant barcode read abundance (log10)” value was determined as 0.323.

Regarding “CCTCAGGCTTGGGTTCTAACCTGTTGCCC (site CCTCAGGCTAG)”, the “recombinant barcode read abundance (log10)” value is 0.0156.

Regarding “CCTCAGGCTTGGGTTCTAACCTGTTGCCC (site CCTCAGGCTCG)”, the “recombinant barcode read abundance (log10)” value was 0.0734.

“CCTCAGGCTTGGGTTCTAACCTGTTGCCC (site CCTCAGGCTGG)”: the “recombinant barcode read abundance (log10)” value was found to be 0.651.

As for “CCTCAGGCTTGGGTTCTAACCTGTTGCCC (site CCTCAGGCTTG)”, the “recombinant barcode read abundance (log10)” value is 0.399.

With “CCTCAGGCTTGGGTTCTAACCTGTTGCCG (site CCTCAGGCTAG)”, the “recombinant barcode read abundance (log10)” value amounted to 0.0315.

For the sequence “CCTCAGGCTTGGGTTCTAACCTGTTGCCG (site CCTCAGGCTCG)”, the “recombinant barcode read abundance (log10)” value turned out to be 0.229.

Regarding “CCTCAGGCTTGGGTTCTAACCTGTTGCCG (site CCTCAGGCTGG)”, the “recombinant barcode read abundance (log10)” value amounted to 0.107.

On to “CCTCAGGCTTGGGTTCTAACCTGTTGCCG (site CCTCAGGCTTG)”, for which the “recombinant barcode read abundance (log10)” value was determined as 0.125.

For “CCTCAGTCTTGGGTTCTAACCTGTTGCGA (site CCTCACTCTCC)”, the “recombinant barcode read abundance (log10)” value stood at 0.0773.

For “CCTCAGTCTTGGGTTCTAACCTGTTGCGA (site CCTCAGTCTTC)”, the “recombinant barcode read abundance (log10)” value was 1.81.

“CCTCATTCTTGGGTTCTAACCTGTTGCTT (site CCTCAATCTAA)”: the “recombinant barcode read abundance (log10)” value was found to be 0.0648.

In the case of “CCTCATTCTTGGGTTCTAACCTGTTGCTT (site CCTCACTCTAA)”, the “recombinant barcode read abundance (log10)” value came out at 0.

Regarding “CCTCATTCTTGGGTTCTAACCTGTTGCTT (site CCTCAGTCTAA)”, the “recombinant barcode read abundance (log10)” value came out at 0.142.

As for “CCTCATTCTTGGGTTCTAACCTGTTGCTT (site CCTCATTCTAA)”, the “recombinant barcode read abundance (log10)” value came to 0.199.

In the case of “CCTCTGGCTTGGGTTCTAACCTGTTGCCT (site CCGCTGTCTAG)”, the “recombinant barcode read abundance (log10)” value amounted to 0.808.

Regarding “CCTCTGGCTTGGGTTCTAACCTGTTGCCT (site CCTCTGGCTAG)”, the “recombinant barcode read abundance (log10)” value was found to be 0.514.

On to “CCTGACTCTTGGGTTCTAACCTGTTGCCT (site CCTGAATCTAG)”, for which the “recombinant barcode read abundance (log10)” value was 0.088.

Consider “CCTGACTCTTGGGTTCTAACCTGTTGCCT (site CCTGACTCTAG)”, for which the “recombinant barcode read abundance (log10)” value worked out at 0.85.

As to “CCTGACTCTTGGGTTCTAACCTGTTGCCT (site CCTGAGTCTAG)”, the “recombinant barcode read abundance (log10)” value turned out to be 0.0146.

With “CCTGACTCTTGGGTTCTAACCTGTTGCCT (site CCTGATTCTAG)”, the “recombinant barcode read abundance (log10)” value came out at 0.195.

Regarding “CCTGCGACTTGGGTTCTAACCTGTTGCCT (site CCTGCGACTAG)”, the “recombinant barcode read abundance (log10)” value came out at 0.408.

“CCTGCGACTTGGGTTCTAACCTGTTGCCT (site CCTGCGGCTAG)”: the “recombinant barcode read abundance (log10)” value amounted to 0.0687.

Regarding “CCTGCTCCTTGGGTTCTAACCTGTTGCTT (site CCTACTCCTAG)”, the “recombinant barcode read abundance (log10)” value turned out to be 0.0276.

Take “CCTGCTCCTTGGGTTCTAACCTGTTGCTT (site CCTGCTCCTAA)”: the “recombinant barcode read abundance (log10)” value stood at 0.393.

As for “CCTGGGACTTGGGTTCTAACCTGTTGCGA (site CCTGGGACTAC)”, the “recombinant barcode read abundance (log10)” value was 0.0343.

For “CCTGGGACTTGGGTTCTAACCTGTTGCGA (site CCTGGGACTCC)”, the “recombinant barcode read abundance (log10)” value is 0.256.

With “CCTGGGACTTGGGTTCTAACCTGTTGCGA (site CCTGGGACTGC)”, the “recombinant barcode read abundance (log10)” value amounted to 0.961.

As to “CCTGGGACTTGGGTTCTAACCTGTTGCGA (site CCTGGGACTTC)”, the “recombinant barcode read abundance (log10)” value was determined as 2.58.

For “CCTGGTCCTTGGGTTCTAACCTGTTGCCT (site CCTGGGGCTAG)”, the “recombinant barcode read abundance (log10)” value turned out to be 0.16.

With “CCTGGTCCTTGGGTTCTAACCTGTTGCCT (site CCTGGTCCTAG)”, the “recombinant barcode read abundance (log10)” value was determined as 1.56.

As for “CCTTAGACTTGGGTTCTAACCTGTTGCGT (site CCTAATACTAC)”, the “recombinant barcode read abundance (log10)” value amounted to 0.107.

With “CCTTAGACTTGGGTTCTAACCTGTTGCGT (site CCTTAGACTAC)”, the “recombinant barcode read abundance (log10)” value came to 1.8.

As for “CCTTCTACTTGGGTTCTAACCTGTTGCCT (site CCTTCTACTAG)”, the “recombinant barcode read abundance (log10)” value stood at 0.225.

As to “CCTTCTACTTGGGTTCTAACCTGTTGCCT (site CCTTCTACTTA)”, the “recombinant barcode read abundance (log10)” value stood at 0.

Regarding “CCTTGCCCTTGGGTTCTAACCTGTTGCCT (site CATTGCCCTAG)”, the “recombinant barcode read abundance (log10)” value is 0.0176.

With “CCTTGCCCTTGGGTTCTAACCTGTTGCCT (site CCTTGCCCTAG)”, the “recombinant barcode read abundance (log10)” value came to 0.667.

With “CCTTGCCCTTGGGTTCTAACCTGTTGCCT (site CGTTGCCCTAG)”, the “recombinant barcode read abundance (log10)” value came to 0.1.

Turning to “CCTTGCCCTTGGGTTCTAACCTGTTGCCT (site CTTTGCCCTAG)”, the “recombinant barcode read abundance (log10)” value came to 0.117.

In the case of “CCTTGTCCTTGGGTTCTAACCTGTTGCAG (site CCTTGTCCTCT)”, the “recombinant barcode read abundance (log10)” value was 0.79.

For “CCTTGTCCTTGGGTTCTAACCTGTTGCAG (site CGTTGTCCTTT)”, the “recombinant barcode read abundance (log10)” value was found to be 0.144.

As for “CCTTGTGCTTGGGTTCTAACCTGTTGCGT (site CCTTGTGCTAC)”, the “recombinant barcode read abundance (log10)” value was 0.158.

On to “CCTTGTGCTTGGGTTCTAACCTGTTGCGT (site TAGGTATCTCT)”, for which the “recombinant barcode read abundance (log10)” value is 0.0915.

For “CCTTGTTCTTGGGTTCTAACCTGTTGCCT (site ACTTGTTCTAG)”, the “recombinant barcode read abundance (log10)” value is 0.105.

On to “CCTTGTTCTTGGGTTCTAACCTGTTGCCT (site CCTTGTTCTAG)”, for which the “recombinant barcode read abundance (log10)” value was found to be 0.0314.

In the case of “CCTTGTTCTTGGGTTCTAACCTGTTGCCT (site GCTTGTTCTAG)”, the “recombinant barcode read abundance (log10)” value came out at 0.14.

As to “CCTTGTTCTTGGGTTCTAACCTGTTGCCT (site TCTTGTTCTAG)”, the “recombinant barcode read abundance (log10)” value turned out to be 0.0322.

With “CCTTGTTCTTGGGTTCTAACCTGTTGCTA (site CCTTGTTCTTA)”, the “recombinant barcode read abundance (log10)” value stood at 0.113.

“CCTTGTTCTTGGGTTCTAACCTGTTGCTA (site TCGTGTTCTTA)”: the “recombinant barcode read abundance (log10)” value is 0.149.

With “CGAAATGCTTGGGTTCTAACCTGTTGCCT (site CGAAATGCTAG)”, the “recombinant barcode read abundance (log10)” value came out at 0.798.

Consider “CGAAATGCTTGGGTTCTAACCTGTTGCCT (site CGCAATGCTAG)”, for which the “recombinant barcode read abundance (log10)” value was determined as 0.0184.

Turning to “CGAAATGCTTGGGTTCTAACCTGTTGCCT (site CGGAATGCTAG)”, the “recombinant barcode read abundance (log10)” value was found to be 0.035.

In the case of “CGAAATGCTTGGGTTCTAACCTGTTGCCT (site CGTAATGCTAG)”, the “recombinant barcode read abundance (log10)” value was determined as 0.77.

As to “CGAACGACTTGGGTTCTAACCTGTTGCTT (site CGAACGACTAA)”, the “recombinant barcode read abundance (log10)” value came to 0.0324.

As for “CGAACGACTTGGGTTCTAACCTGTTGCTT (site CGAACGACTAG)”, the “recombinant barcode read abundance (log10)” value came out at 0.113.

Turning to “CGAACTACTTGGGTTCTAACCTGTTGCCT (site CGAACTACTAA)”, the “recombinant barcode read abundance (log10)” value turned out to be 0.0404.

As for “CGAACTACTTGGGTTCTAACCTGTTGCCT (site CGAACTACTAC)”, the “recombinant barcode read abundance (log10)” value was found to be 0.311.

Consider “CGAACTACTTGGGTTCTAACCTGTTGCCT (site CGAACTACTAG)”, for which the “recombinant barcode read abundance (log10)” value was 0.0694.
